Earlier results on 4 compounds are cited in patent US20010009917A1, “Methods and compositions for treating asthma, atherosclerosis and inflammatory diseases using optically pure (-zileuton” (priority 1993, published 2001).

Data set [1] concerns the target T1, human platelet 12-lipoxygenase (Homo sapiens, UniProt P18054).
T1 construct: the supernatant containing the 12-lipoxygenase activity stored frozen until used; from tissue; host or cells: human platelets, sonicated lysate supernatant
T1 sequence (P18054 1-663): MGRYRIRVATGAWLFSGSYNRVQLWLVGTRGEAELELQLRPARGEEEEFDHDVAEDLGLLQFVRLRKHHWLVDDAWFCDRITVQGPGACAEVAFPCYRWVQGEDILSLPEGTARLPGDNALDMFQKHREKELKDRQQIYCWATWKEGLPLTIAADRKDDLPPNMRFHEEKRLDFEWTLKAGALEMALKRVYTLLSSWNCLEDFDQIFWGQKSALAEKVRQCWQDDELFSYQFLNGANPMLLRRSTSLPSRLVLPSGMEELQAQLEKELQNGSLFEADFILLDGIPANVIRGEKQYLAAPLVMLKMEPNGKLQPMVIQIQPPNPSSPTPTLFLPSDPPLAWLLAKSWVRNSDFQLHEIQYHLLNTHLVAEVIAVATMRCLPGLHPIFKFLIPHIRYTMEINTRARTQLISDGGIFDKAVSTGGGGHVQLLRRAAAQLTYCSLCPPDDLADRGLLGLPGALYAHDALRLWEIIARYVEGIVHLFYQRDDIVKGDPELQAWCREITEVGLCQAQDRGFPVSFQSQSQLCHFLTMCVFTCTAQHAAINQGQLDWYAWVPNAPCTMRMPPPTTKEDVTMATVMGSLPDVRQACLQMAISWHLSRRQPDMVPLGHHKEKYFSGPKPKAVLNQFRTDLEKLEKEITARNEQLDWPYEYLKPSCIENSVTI

Data set [2] deals with T2, sheep seminal vesicle cyclooxygenase (Ovis aries, UniProt P05979).
T2 construct: incubations with sheep seminal vesicle gland microsomes (2 mg/mL); from tissue; host or cells: sheep seminal vesicle gland microsomes
T2 sequence (P05979 25-600): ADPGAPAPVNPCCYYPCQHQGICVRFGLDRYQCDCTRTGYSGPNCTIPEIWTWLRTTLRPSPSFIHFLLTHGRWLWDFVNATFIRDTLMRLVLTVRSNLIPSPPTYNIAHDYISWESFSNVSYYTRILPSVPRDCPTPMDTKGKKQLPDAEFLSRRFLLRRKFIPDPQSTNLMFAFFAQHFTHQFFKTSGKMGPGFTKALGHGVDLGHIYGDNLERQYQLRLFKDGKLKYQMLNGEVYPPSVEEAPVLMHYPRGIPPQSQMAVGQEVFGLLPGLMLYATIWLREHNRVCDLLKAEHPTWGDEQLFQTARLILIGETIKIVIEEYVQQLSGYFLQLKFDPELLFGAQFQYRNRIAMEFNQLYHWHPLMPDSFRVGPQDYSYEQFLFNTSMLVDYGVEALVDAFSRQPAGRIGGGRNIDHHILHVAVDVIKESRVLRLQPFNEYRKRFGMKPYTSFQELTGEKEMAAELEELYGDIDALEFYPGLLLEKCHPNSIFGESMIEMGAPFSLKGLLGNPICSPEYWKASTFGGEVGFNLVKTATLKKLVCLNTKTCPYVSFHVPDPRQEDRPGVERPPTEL

A further data set concerns LTB4. Conditions: human volunteers, 800 mg p.o. twice per day for four weeks.
For data set [3] the following is noted: dog liver microsomes. In general terms: Microsomes from liver hold many membrane-bound enzymes, among them those of drug oxidation.

Turning to `CC(c1cc2ccccc2s1)N(O)C(N)=O` (racemic) [racemic zileuton, N-(1-benzo[b]thien-2-ylethyl)-N-hydroxyurea], the “inhibitory effect on human platelet 12-lipoxygenase” value in data set [1] is “little inhibitory effect”. Further, in data set [2], the “inhibitory effect on sheep seminal vesicle cyclooxygenase” value was “little inhibitory effect”. In addition, the “decreases in LTB4” value with LTB4 was 75 to 85%. Also, for the setting “four week trial”, the “patients reporting an adverse event during the four week trial” value was “One hundred”. Further, the “improvement in symptoms of rheumatoid arthritis” value (human volunteers, 800 mg p.o. twice per day for four weeks) is “statistically significant improvement”.

With `C[C@H](c1cc2ccccc2s1)N(O)C(N)=O` [(+)-zileuton, (+) isomer of N-(1-benzo[b]thien-2-ylethyl)-N-hydroxyurea], the “effect on glucuronidation of S-(−)-zileuton” value in data set [3] is on record as “enhancement of that reaction”.

Regarding `C[C@@H](c1cc2ccccc2s1)N(O)C(N)=O` [S-(−)-zileuton], the glucuronidation entry in data set [3] was “selective glucuronidation”.

`CC(C)NC[C@H](O)COc1cccc2ccccc12` [propranolol]: the “potency relative to the D-enantiomer” value in the data set on beta-adrenergic is 100 times.
